PubChem BioAssay AID1963861 (Molecular Pharmacology Branch, DTP, NCI, 2024)

System: 885724-159-R-J1-PDC KRAS PDC multicell spheroid viability
Assay: Anticancer human tumor 885724-159-R-J1-PDC patient-derived pancreatic adenocarcinoma cell line growth inhibition [KRAS2]
Details: for IC50: curve of first compound; for viability, T/C: stronger effect = lower value
In short: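 Combination screen of spheroid viability in tumor-cell co-cultures with endothelial (HUVEC) and mesenchymal stem cell stroma. Each agent was tested in half-log dilutions, topping at clinical Cmax or at 10 microM without a known Cmax.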

[1] = second compound 0.1 µM, first compound 0.0316 µM
[2] = second compound 0.1 µM, first compound 0.1 µM
[3] = second compound 0.1 µM, first compound 0.316 µM
[4] = second compound 0.1 µM, first compound 1 µM
[5] = second compound 0.1 µM, first compound 3.16 µM
[6] = second compound 0.1 µM, first compound 10 µM
[7] = second compound 0.316 µM, first compound 0.0316 µM
[8] = second compound 0.316 µM, first compound 0.1 µM
[9] = second compound 0.316 µM, first compound 0.316 µM
[10] = second compound 0.316 µM, first compound 1 µM
[11] = second compound 0.316 µM, first compound 3.16 µM
[12] = second compound 0.316 µM, first compound 10 µM
[13] = second compound 1 µM, first compound 0.0316 µM
[14] = second compound 1 µM, first compound 0.1 µM
[15] = second compound 1 µM, first compound 0.316 µM
[16] = second compound 1 µM, first compound 1 µM
[17] = second compound 1 µM, first compound 3.16 µM
[18] = second compound 1 µM, first compound 10 µM
[19] = second compound 3.16 µM, first compound 0.0316 µM
[20] = second compound 3.16 µM, first compound 0.1 µM
[21] = second compound 3.16 µM, first compound 0.316 µM
[22] = second compound 3.16 µM, first compound 1 µM
[23] = second compound 3.16 µM, first compound 3.16 µM
[24] = second compound 3.16 µM, first compound 10 µM
[25] = second compound 10 µM, first compound 0.0316 µM
[26] = second compound 10 µM, first compound 0.1 µM
[27] = second compound 10 µM, first compound 0.316 µM
[28] = second compound 10 µM, first compound 1 µM
[29] = second compound 10 µM, first compound 3.16 µM
[30] = second compound 10 µM, first compound 10 µM
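Note: spheroids exposed to agents for 7 days before readout.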

## COC(=O)c1ccc2c(C(=Nc3ccc(N(C)C(=O)CN4CCN(C)CC4)cc3)c3ccccc3)c(O)[nH]c2c1 + CC1OCC2(CCN(c3cnc(Sc4ccnc(N)c4Cl)c(N)n3)CC2)C1N
Second compound 0.1 µM
  IC50: 2.02 µM
Second compound 0.316 µM
  IC50: 1.82 µM
Second compound 1 µM
  IC50: 1.52 µM
Second compound 3.16 µM
  IC50: 1.4 µM
Second compound 10 µM
  IC50: 1.09 µM
[1]
  viability, T/C: 95%
[2]
  viability, T/C: 95.8%
[3]
  viability, T/C: 92.2%
[4]
  viability, T/C: 94.2%
[5]
  viability, T/C: 21.9%
[6]
  viability, T/C: 0.87%
[7]
  viability, T/C: 91.4%
[8]
  viability, T/C: 84.9%
[9]
  viability, T/C: 80.9%
[10]
  viability, T/C: 86.4%
[11]
  viability, T/C: 17.1%
[12]
  viability, T/C: 0.39%
[13]
  viability, T/C: 67.3%
[14]
  viability, T/C: 69.3%
[15]
  viability, T/C: 73.8%
[16]
  viability, T/C: 70.2%
[17]
  viability, T/C: 14.8%
[18]
  viability, T/C: 1.25%
[19]
  viability, T/C: 66.9%
[20]
  viability, T/C: 74.1%
[21]
  viability, T/C: 78.2%
[22]
  viability, T/C: 66%
[23]
  viability, T/C: 10.4%
[24]
  viability, T/C: 0.29%
[25]
  viability, T/C: 62%
[26]
  viability, T/C: 68.8%
[27]
  viability, T/C: 61.4%
[28]
  viability, T/C: 53.9%
[29]
  viability, T/C: 2.07%
[30]
  viability, T/C: 0.63%

## O=C(c1cc(Cc2n[nH]c(=O)c3ccccc23)ccc1F)N1CCN(C(=O)C2CC2)CC1 + CC1OCC2(CCN(c3cnc(Sc4ccnc(N)c4Cl)c(N)n3)CC2)C1N
Second compound 0.1 µM
  IC50: > 10 µM
Second compound 0.316 µM
  IC50: > 10 µM
Second compound 1 µM
  IC50: > 10 µM
Second compound 3.16 µM
  IC50: > 10 µM
Second compound 10 µM
  IC50: > 10 µM
[1]
  viability, T/C: 111%
[2]
  viability, T/C: 113%
[3]
  viability, T/C: 106%
[4]
  viability, T/C: 104%
[5]
  viability, T/C: 100%
[6]
  viability, T/C: 95.8%
[7]
  viability, T/C: 103%
[8]
  viability, T/C: 109%
[9]
  viability, T/C: 104%
[10]
  viability, T/C: 103%
[11]
  viability, T/C: 104%
[12]
  viability, T/C: 89.6%
[13]
  viability, T/C: 145%
[14]
  viability, T/C: 149%
[15]
  viability, T/C: 143%
[16]
  viability, T/C: 137%
[17]
  viability, T/C: 118%
[18]
  viability, T/C: 104%
[19]
  viability, T/C: 81%
[20]
  viability, T/C: 90.4%
[21]
  viability, T/C: 85.1%
[22]
  viability, T/C: 86%
[23]
  viability, T/C: 78.9%
[24]
  viability, T/C: 77.6%
[25]
  viability, T/C: 78.3%
[26]
  viability, T/C: 87.4%
[27]
  viability, T/C: 132%
[28]
  viability, T/C: 81%
[29]
  viability, T/C: 70.7%
[30]
  viability, T/C: 67.1%
